According to patent US20250296953A1, “3,4-THIAZOLO-STEROIDS AND METHODS OF MAKING AND USING THE SAME” (Arkansas State University - Jonesboro, priority 2018, published 2025):
Like-named read-outs stand apart in the source and are kept apart here.

How the values were obtained:
[1] = test system: SF-539; experiment: NCI 60 one dose screen; format: cell-based, human; details: one dose; CNS Cancer; SF-539
[2] = test system: RPMI-8226; experiment: NCI 60 five dose screen; details: RPMI-8226 (Leukemia), five dose
[3] = test system: HCT-15 (Colon Cancer); experiment: NCI 60 one dose screen; format: cell-based, human
[4] = test system: NCI-H522 (NSCLC); experiment: NCI 60 one dose screen; format: cell-based, human; details: Non-small Cell Lung Cancer
[5] = test system: glioblastoma (SF-295); experiment: NCI 60 five dose screen; details: SF-295 (CNS Cancer), five dose
[6] = test system: 60 different human tumor cell lines; experiment: NCI Development Therapeutics Program 60 cell line screen, one dose; format: cell-based
[7] = test system: SR; experiment: NCI 60 five dose screen; details: SR (Leukemia), five dose
[8] = test system: 60 different human tumor cell lines; details: five dose
[9] = A549/ATCC (Non-small Cell Lung Cancer)
[10] = EKVX (Non-small Cell Lung Cancer)
[11] = HOP-62 (Non-small Cell Lung Cancer)
[12] = HOP-92 (Non-small Cell Lung Cancer)

`C[C@]12CCc3nc(N)sc3C1=CC[C@@H]1[C@@H]2CC[C@]2(C)C(=NNC(N)=O)CC[C@@H]12` [IVb.1] was tested, and the “Growth Percent” value [1] was 87.19%, the GI50 [2] was 0.3 µM and the TGI [2] was 1.37E−6. The CC50 ([2]; read-out: LC50) was > 100 µM, the “Growth Percent” value [3] was −47.82% and the “Growth Percent” value [4] was −18.57%. The GI50 [5] was 1.61 µM, the TGI [5] was 3.03E−6 and the CC50 ([5]; read-out: LC50) was 5.71 µM. For the same compound, the “Growth Percent” value ([6]; Breast Cancer, BT-549) was 107.48%, the “Growth Percent” value ([6]; Breast Cancer, HS 578T) was 36.38% and the “Growth Percent” value ([6]; Breast Cancer, MCF7) was −55.62%. The “Growth Percent” value ([6]; Breast Cancer, MDA-MB-231/ATCC) was 35.18%, the “Growth Percent” value ([6]; Breast Cancer, MDA-MB-468) was −46.23% and the “Growth Percent” value ([6]; Breast Cancer, T-47D) was −21.02%. For the same compound, the “Growth Percent” value ([6]; CNS Cancer, SF-268) was −6.41%, the “Growth Percent” value ([6]; CNS Cancer, SNB-19) was −9.98% and the “Growth Percent” value ([6]; CNS Cancer, SNB-75) was 99.02%. For the same compound, the “Growth Percent” value ([6]; CNS Cancer, U251) was −69.94%, the “Growth Percent” value ([6]; Colon Cancer, COLO 205) was 34.98% and the “Growth Percent” value ([6]; Colon Cancer, HCC-2998) was 63.85%. The “Growth Percent” value ([6]; Colon Cancer, HCT-116) was 6.35%, the “Growth Percent” value ([6]; Colon Cancer, HT29) was 13.20% and the “Growth Percent” value ([6]; Colon Cancer, KM12) was 20.47%. For the same compound, the “Growth Percent” value ([6]; Colon Cancer, SW-620) was −59.20%, the “Growth Percent” value ([6]; Leukemia, CCRF-CEM) was −5.86% and the “Growth Percent” value ([6]; Leukemia, HL-60(TB)) was 42.82%. The “Growth Percent” value ([6]; Leukemia, K-562) was −38.55%, the “Growth Percent” value ([6]; Leukemia, MOLT-4) was 13.35% and the “Growth Percent” value ([6]; Leukemia, RPMI-8226) was −6.28%. For the same compound, the “Growth Percent” value ([6]; Leukemia, SR) was −21.79%, the “Growth Percent” value ([6]; Melanoma, LOX IMVI) was −67.61% and the “Growth Percent” value ([6]; Melanoma, M14) was −51.14%. For the same compound, the “Growth Percent” value ([6]; Melanoma, MALME-3M) was 3.07%, the “Growth Percent” value ([6]; Melanoma, MDA-MB-435) was −58.82% and the “Growth Percent” value ([6]; Melanoma, SK-MEL-5) was 20.55%. The “Growth Percent” value ([6]; Melanoma, SK-MEL-28) was 13.00%, the “Growth Percent” value ([6]; Melanoma, UACC-62) was 38.92% and the “Growth Percent” value ([6]; Melanoma, UACC-257) was 105.26%. The “Growth Percent” value ([6]; Non-small Cell Lung Cancer, A549/ATCC) was 0.92%, the “Growth Percent” value ([6]; Non-small Cell Lung Cancer, EKVX) was −4.54% and the “Growth Percent” value ([6]; Non-small Cell Lung Cancer, HOP-62) was 75.49%. For the same compound, the “Growth Percent” value ([6]; Non-small Cell Lung Cancer, HOP-92) was 46.57%, the “Growth Percent” value ([6]; Non-small Cell Lung Cancer, NCI-H23) was −44.30% and the “Growth Percent” value ([6]; Non-small Cell Lung Cancer, NCI-H226) was 107.87%. For the same compound, the “Growth Percent” value ([6]; Non-small Cell Lung Cancer, NCI-H322M) was 52.42%, the “Growth Percent” value ([6]; Non-small Cell Lung Cancer, NCI-H460) was −38.65% and the “Growth Percent” value ([6]; Ovarian Cancer, IGROV1) was 2.90%. For the same compound, the “Growth Percent” value ([6]; Ovarian Cancer, NCI/ADR-RES) was −5.32%, the “Growth Percent” value ([6]; Ovarian Cancer, OVCAR-3) was −32.35% and the “Growth Percent” value ([6]; Ovarian Cancer, OVCAR-4) was −19.07%. For the same compound, the “Growth Percent” value ([6]; Ovarian Cancer, OVCAR-5) was 72.93%, the “Growth Percent” value ([6]; Ovarian Cancer, OVCAR-8) was −2.26% and the “Growth Percent” value ([6]; Ovarian Cancer, SK-OV-3) was 100.67%. For the same compound, the “Growth Percent” value ([6]; Prostate Cancer, PC-3) was 57.29%, the “Growth Percent” value ([6]; Renal Cancer, 786-0) was −9.65% and the “Growth Percent” value ([6]; Renal Cancer, A498) was 91.62%. For the same compound, the “Growth Percent” value ([6]; Renal Cancer, ACHN) was 32.38%, the “Growth Percent” value ([6]; Renal Cancer, CAKI-1) was 62.97% and the “Growth Percent” value ([6]; Renal Cancer, RXF 393) was 7.08%. The “Growth Percent” value ([6]; Renal Cancer, SN12C) was 18.09%, the “Growth Percent” value ([6]; Renal Cancer, TK-10) was 49.21% and the “Growth Percent” value ([6]; Renal Cancer, UO-31) was 85.84%. For the same compound, the GI50 [7] was 1.29 µM, the TGI [7] was 4.33E−6 and the CC50 ([7]; read-out: LC50) was > 100 µM. The GI50 ([8]; 786-0 (Renal Cancer)) was 1.39 µM, the TGI ([8]; 786-0 (Renal Cancer)) was 2.82E−6 and the GI50 ([8]; A498 (Renal Cancer)) was 2.1 µM. It also gave a TGI ([8]; A498 (Renal Cancer)) of 6.83E−6, a GI50 [8, 9] of 2.02 µM and a TGI [8, 9] of 3.89E−6. For the same compound, the GI50 ([8]; ACHN (Renal Cancer)) was 1.8 µM, the TGI ([8]; ACHN (Renal Cancer)) was 3.19E−6 and the GI50 ([8]; BT-549 (Breast Cancer)) was 2.84 µM. It also gave a TGI ([8]; BT-549 (Breast Cancer)) of 8.91E−6, a GI50 ([8]; CAKI-1 (Renal Cancer)) of 1.77 µM and a TGI ([8]; CAKI-1 (Renal Cancer)) of 3.64E−6. For the same compound, the GI50 ([8]; CCRF-CEM (Leukemia)) was 0.28 µM, the TGI ([8]; CCRF-CEM (Leukemia)) was 1.62E−6 and the GI50 ([8]; COLO 205 (Colon Cancer)) was 2.06 µM. It also gave a TGI ([8]; COLO 205 (Colon Cancer)) of 4.37E−6, a GI50 ([8]; DU-145 (Prostate Cancer)) of 1.75 µM and a TGI ([8]; DU-145 (Prostate Cancer)) of 3.41E−6. For the same compound, the GI50 [8, 10] was 1.8 µM, the TGI [8, 10] was 3.63E−6 and the GI50 ([8]; HCC-2998 (Colon Cancer)) was 1.74 µM. For the same compound, the TGI ([8]; HCC-2998 (Colon Cancer)) was 3.28E−6, the GI50 ([8]; HCT-15 (Colon Cancer)) was 1.46 µM and the TGI ([8]; HCT-15 (Colon Cancer)) was 2.86E−6. The GI50 ([8]; HCT-116 (Colon Cancer)) was 2.09 µM, the TGI ([8]; HCT-116 (Colon Cancer)) was 4.35E−6 and the GI50 ([8]; HL-60(TB) (Leukemia)) was 2.73 µM. The TGI ([8]; HL-60(TB) (Leukemia)) was 7.95E−6, the GI50 [8, 11] was 1.84 µM and the TGI [8, 11] was 3.47E−6. For the same compound, the GI50 [8, 12] was 1.51 µM, the TGI [8, 12] was 3.16E−6 and the GI50 ([8]; HS 578T (Breast Cancer)) was 2.08 µM. It also gave a TGI ([8]; HS 578T (Breast Cancer)) of 5.15E−6, a GI50 ([8]; HT29 (Colon Cancer)) of 1.88 µM and a TGI ([8]; HT29 (Colon Cancer)) of 3.73E−6. It also gave a GI50 ([8]; IGROV1 (Ovarian Cancer)) of 1.78 µM, a TGI ([8]; IGROV1 (Ovarian Cancer)) of 3.43E−6 and a GI50 ([8]; K-562 (Leukemia)) of 1.81 µM. For the same compound, the TGI ([8]; K-562 (Leukemia)) was 5.08E−6, the GI50 ([8]; KM12 (Colon Cancer)) was 2.01 µM and the TGI ([8]; KM12 (Colon Cancer)) was 4.01E−6. It also gave a GI50 ([8]; LOX IMVI (Melanoma)) of 1.71 µM, a TGI ([8]; LOX IMVI (Melanoma)) of 3.12E−6 and a GI50 ([8]; M14 (Melanoma)) of 1.94 µM. The TGI ([8]; M14 (Melanoma)) was 3.77E−6, the GI50 ([8]; MALME-3M (Melanoma)) was 1.76 µM and the TGI ([8]; MALME-3M (Melanoma)) was 3.49E−6. For the same compound, the GI50 ([8]; MCF7 (Breast Cancer)) was 1.52 µM.
